Structures can show the parent of a compound that is named as a salt. Where two headings read alike, the source gives them in different places.
What was measured:
female SA rats = assay: Liver toxicity (serum liver enzymes and total bilirubin); type: in vivo, rat; conditions: iv infusion 2 x 37.5 μmole/kg, 12 hours after second dose
Method: Female SA rats (150-200 g) were anesthetized with halothane and cannulated via the internal jugular vein. The animals wee allowed to recover for 3 days. […] Twelve hours later, an additional 37.5 μmole/kg was infused over 20 minutes (total dose=75 μmole/kg). […] Liver enzymes (serum glutamic-oxaloacetic transaminase (SGOT), serum glutamic-pyruvic transaminase (SGPT), alkaline phosphatase) and total bilirubin in the serum samples were dermined by a commercial laboratory.

male SA rats = assay: Anticonvulsant activity, maximal electroshock (MES) model, suppression of hind limb tonic extension; type: in vivo; conditions: Rattus norvegicus, 1 h
[1] = target: T1, partially purified pig heart adenosine kinase (Sus scrofa, UniProt A0A5G2R0F5); assay: Adenosine kinase (AK) inhibition; type: biochemical
T1 construct: partially purified pig heart adenosine kinase; from tissue; host or cells: pig heart
T1 sequence (A0A5G2R0F5 1-362): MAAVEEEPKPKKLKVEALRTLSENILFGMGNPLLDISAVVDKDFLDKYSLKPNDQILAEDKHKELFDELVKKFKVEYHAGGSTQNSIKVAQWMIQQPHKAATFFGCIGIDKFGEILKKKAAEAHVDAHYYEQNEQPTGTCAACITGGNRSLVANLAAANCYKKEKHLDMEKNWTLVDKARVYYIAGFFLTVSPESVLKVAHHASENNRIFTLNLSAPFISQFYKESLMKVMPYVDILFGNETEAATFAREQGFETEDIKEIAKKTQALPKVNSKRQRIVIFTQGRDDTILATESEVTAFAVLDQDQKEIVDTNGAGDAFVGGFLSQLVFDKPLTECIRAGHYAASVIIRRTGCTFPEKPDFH
Method: Adenosine kinase activity was measured essentially as described by Yamada et al. Biochim. Biophys. Acta 660, 36-43 […] with a few minor modifications. Assay mixtures contained 50 mM TRIS-maleate buffer, pH 7.0, 0.1% BSA, 1 mM ATP 1 mM MgCl2, 0.5 μM [U-^14 C]adenosine (400-600 mCi/mmol) and varying duplicate concentrations of inhibitor. The reactions were initiated by addition of approximately 0.1 μU partially purified pig heart adenosine kinase, where one unit is defined as that amount of enzyme required to phosphorylate 1 μmol adenosine per minute. The reactions were incubated for 20 minutes at 37° C. The assay was quenched upon spotting 30 μL aliquots onto 2 cm^2 pieces of Whatman DE81 anion exchange paper. The paper squares were washed for 3 minutes in 6 L distilled/deionized water to remove the unreacted adenosine. […] The amount of ^14 C-AMP was quantified by scintillation counting.

[2] = system: carrageenan-induced paw swelling in rats; assay: Anti-inflammatory activity, carrageenan paw swelling; type: in vivo, rat; conditions: po, 10 mg/kg, paw swelling 3 hours after carrageenan, vs vehicle
Method: Carrageenan (Type λ) was suspended in sterile PBS at 1% (w/v), autoclaved for 30 minutes, and stored at room temperature. Rats were pretreated with vehicle or AK inhibitor (10 mg/kg) by oral gavage or i.p. administration and the volume of the left hind paw was measured using a water displacement plethysmometer (Stoelting Co., Wood Dale, Ill.). One hour after oral treatment or 30 minutes after i.p. treatment, the rats were briefly anesthetized, and 0.1 ml of the carrageenan solution was injected subcutaneously into the planar surface of the left hind paw. The ensuing paw swelling was measured by plethysmometry after 3 hours. The paw volume in millileters was subtracted from the pre-injection paw volume. Data are presented as the percent inhibition of paw swelling in AK inhibitor treated animals, compared to vehicle treated control animals.

[3] = ip, one hour before seizure testing, >5 or <5 = fewer or more than 50% inhibited in initial screen at 5 mg/kg ip, read-out: Anticonvulsant ED50 (MES), ip
[4] = ip, one hour before seizure testing, >5 or <5 = fewer or more than 50% inhibited in initial screen at 5 mg/kg ip
[5] = po, fasted, one hour before seizure testing, read-out: Anticonvulsant ED50 (MES), po

Structure (SMILES)	IC50 [1]	ED50 at 5 mg/kg (male SA rats; [4])	ED50 (male SA rats; [5])	also measured
C[C@H]1O[C@@H](n2cc(I)c3c(N)ncnc32)[C@H](O)[C@@H]1O [REF. A]				SGPT (female SA rats): 76 IU/L; Total Bilirubin (female SA rats): 0.76 mg/dL
NC[C@H]1O[C@@H](n2nc(Br)c3c(N)ncnc32)[C@H](O)[C@@H]1O [REF. B, 4amino-1-(5-amino-5-deoxy-1-D-ribofuranosyl)-3-bromopyrazolo[3,4d]pyrimidne HCL]				SGOT (female SA rats): 100 IU/L; SGPT (female SA rats): 41 IU/L; Total Bilirubin (female SA rats): 0.30 mg/dL
C[C@H]1O[C@@H](n2cc(-c3ccccc3)c3c(Nc4cc(F)cc(F)c4)ncnc32)[C@H](O)[C@@H]1O [compound 10]	1 nM			ED50 (male SA rats; [3]): 5 mg/kg
C[C@H]1O[C@@H](n2cc(-c3ccccc3)c3c(Nc4ccc(F)c(F)c4)ncnc32)[C@H](O)[C@@H]1O [compound 11]	4 nM	5 mg/kg		
COc1ccc(Nc2ncnc3c2c(-c2ccccc2)cn3[C@@H]2O[C@H](C)[C@@H](O)[C@H]2O)cc1 [compound 13]	6 nM		> 10 mg/kg	ED50 (male SA rats; [3]): 2 mg/kg
C[C@H]1O[C@@H](n2cc(-c3cccc(Cl)c3)c3c(Nc4ccccc4)ncnc32)[C@H](O)[C@@H]1O [compound 15]	16 nM	2.5 mg/kg		ED50 (male SA rats; po, read-out: Anticonvulsant ED50 (MES), po): > 20 mg/kg
Cc1ccc(-c2cn([C@@H]3O[C@H](C)[C@@H](O)[C@H]3O)c3ncnc(Nc4ccccc4)c23)cc1 [compound 16]	9 nM	2.3 mg/kg	8.7 mg/kg	
C[C@H]1O[C@@H](n2cc(-c3ccccc3)c3c(Nc4cccc(Cl)c4)ncnc32)[C@H](O)[C@@H]1O [compound 17]	17 nM			
Cc1cccc(Nc2ncnc3c2c(-c2ccccc2)cn3[C@@H]2O[C@H](C)[C@@H](O)[C@H]2O)c1 [compound 18]	4 nM	3.8 mg/kg	> 40 mg/kg	
C[C@H]1O[C@@H](n2cc(-c3ccccc3)c3c(Nc4cccc(F)c4)ncnc32)[C@H](O)[C@@H]1O [compound 19]	2 nM	0.4 mg/kg	> 30 mg/kg	
C[C@H]1O[C@@H](n2cc(-c3ccccc3)c3c(Nc4ccc(O)cc4)ncnc32)[C@H](O)[C@@H]1O [compound 20]	32 nM		40 mg/kg	ED50 (male SA rats; [3]): 5.5 mg/kg
C[C@H]1O[C@@H](n2cc(-c3ccc(F)cc3)c3c(Nc4ccccc4)ncnc32)[C@H](O)[C@@H]1O [compound 24]		2.5 mg/kg	10 mg/kg	
COc1ccc(-c2cn([C@@H]3O[C@H](C)[C@@H](O)[C@H]3O)c3ncnc(Nc4ccc(F)cc4)c23)cc1 [compound 25]	10 nM	3.1 mg/kg		
CCOc1ccc(Nc2ncnc3c2c(-c2ccccc2)cn3[C@@H]2O[C@H](C)[C@@H](O)[C@H]2O)cc1 [compound 28]	4 nM	< 5 mg/kg		Carrageenan Paw (% inh) [2]: 31.0%
CCc1ccc(Nc2ncnc3c2c(-c2ccccc2)cn3[C@@H]2O[C@H](C)[C@@H](O)[C@H]2O)cc1 [compound 29]	20 nM	> 5 mg/kg		
C[C@H]1O[C@@H](n2cc(-c3cccc([N+](=O)[O-])c3)c3c(Nc4ccc(F)cc4)ncnc32)[C@H](O)[C@@H]1O [compound 30]	28 nM	> 5 mg/kg		
COc1ccc(-c2cn([C@@H]3O[C@H](C)[C@@H](O)[C@H]3O)c3ncnc(Nc4ccc(C(N)=O)cc4)c23)cc1 [compound 31]	2 nM	> 5 mg/kg		Carrageenan Paw (% inh) [2]: -5.8%
CC(=O)Nc1ccc(Nc2ncnc3c2c(-c2ccccc2)cn3[C@@H]2O[C@H](C)[C@@H](O)[C@H]2O)cc1 [compound 32]	0.5 nM	5 mg/kg	> 5 mg/kg	

Structure (SMILES)	IC50 [1]	ED50 at 5 mg/kg (male SA rats; [4])	ED50 (male SA rats; [5])	also measured
C[C@H]1O[C@@H](n2cc(-c3ccccc3)c3c(Nc4ccc(S(N)(=O)=O)cc4)ncnc32)[C@H](O)[C@@H]1O [compound 34]	5 nM	5 mg/kg		Carrageenan Paw (% inh) [2]: -0.2%
C[C@H]1O[C@@H](n2cc(-c3ccccc3)c3c(NCc4ccccc4)ncnc32)[C@H](O)[C@@H]1O [compound 38]	30 nM			ED50 (male SA rats; [3]): > 5 mg/kg
CSc1ccc(Nc2ncnc3c2c(-c2ccccc2)cn3[C@@H]2O[C@H](C)[C@@H](O)[C@H]2O)cc1 [compound 40]	2 nM	5 mg/kg	> 10 mg/kg	
C[C@H]1O[C@@H](n2c(Br)c(-c3ccccc3)c3c(Nc4ccc(F)cc4)ncnc32)[C@H](O)[C@@H]1O [compound 41]	42 nM	> 5 mg/kg		
C[C@H]1O[C@@H](n2cc(-c3ccccc3)c3c(Nc4ccc(N)cc4)ncnc32)[C@H](O)[C@@H]1O [compound 43]	3 nM	< 5 mg/kg		
C[C@H]1O[C@@H](n2nc(-c3ccccc3)c3c(Nc4ccccc4)ncnc32)[C@H](O)[C@@H]1O [compound 86]	4.5 nM	12.3 mg/kg	> 20 mg/kg	
[N-]=[N+]=NC[C@H]1O[C@@H](n2nc(-c3ccccc3)c3c(Nc4ccccc4)ncnc32)[C@H](O)[C@@H]1O [compound 87]	4.5 nM	2.31 mg/kg	> 2.3 mg/kg	
OC[C@H]1O[C@@H](n2nc(-c3ccccc3)c3c(Nc4ccccc4)ncnc32)[C@H](O)[C@@H]1O [compound 88]	5 nM		> 2.6 mg/kg	ED50 (male SA rats; [3]): 2.62 mg/kg
COc1ccc(Nc2ncnc3c2c(-c2ccccc2)nn3[C@@H]2O[C@H](C)[C@@H](O)[C@H]2O)cc1 [compound 89]	17 nM	5 mg/kg		
COc1ccc(Nc2ncnc3c2c(-c2ccccc2)nn3[C@@H]2O[C@H](CN=[N+]=[N-])[C@@H](O)[C@H]2O)cc1 [compound 90]	8 nM	> 3.4 mg/kg		
C[C@H]1O[C@@H](n2nc(-c3ccccc3)c3c(Nc4ccc(Cl)cc4)ncnc32)[C@H](O)[C@@H]1O [compound 91]				IC50 ([1]; read-out: AK Inhibition (IC50), 0.5 μM [U-14C]adenosine, pH 7.0, 37° C., 20 minutes): 11 nM
[N-]=[N+]=NC[C@H]1O[C@@H](n2nc(-c3ccccc3)c3c(Nc4ccc(Cl)cc4)ncnc32)[C@H](O)[C@@H]1O [compound 92]	17 nM			
Cc1ccc(-c2nn([C@@H]3O[C@H](CN=[N+]=[N-])[C@@H](O)[C@H]3O)c3ncnc(Nc4ccccc4)c23)cc1 [compound 93]	20 nM	> 5 mg/kg		
COc1ccc(-c2nn([C@@H]3O[C@H](CN=[N+]=[N-])[C@@H](O)[C@H]3O)c3ncnc(Nc4ccccc4)c23)cc1 [compound 94]	3 nM	> 5 mg/kg		
COc1ccc(-c2nn([C@@H]3O[C@H](CN=[N+]=[N-])[C@@H](O)[C@H]3O)c3ncnc(Nc4ccc(C)cc4)c23)cc1 [compound 95]		> 5 mg/kg		
[N-]=[N+]=NC[C@H]1O[C@@H](n2nc(-c3ccc(Cl)cc3)c3c(Nc4ccccc4)ncnc32)[C@H](O)[C@@H]1O [compound 96]	15 nM	> 5 mg/kg		
[N-]=[N+]=NC[C@H]1O[C@@H](n2nc(-c3cccs3)c3c(Nc4ccccc4)ncnc32)[C@H](O)[C@@H]1O [compound 97]				ED50 (male SA rats; [3]): > 5 mg/kg; IC50 ([1]; 0.5 μM [U-14C]adenosine, pH 7.0, 37° C., 20 minutes, read-out: AK Inhibition (IC50)): 10 nM

Source: patent US5721356A, “Orally active adenosine kinase inhibitors” (Gensia, Inc., priority 1995, dated 1998)
